US20220380319A1 (Bial - R&D Investments, S.A., priority 2019, published 2022)
Converted amounts (≈) assume the structure as drawn.

Key:
acid ceramidase = target: T1, acid ceramidase (Homo sapiens, UniProt Q13510); test: Acid ceramidase inhibition, biochemical fluorescent assay with cell lysates overexpressing acid ceramidase, substrate Rbm14-12; details: substrate Rbm14-12 6.3 μM
T1 construct: Cell lysates overexpressing acid ceramidase were used as the enzyme source; expressed in transfected cells
T1 sequence (Q13510 22-395): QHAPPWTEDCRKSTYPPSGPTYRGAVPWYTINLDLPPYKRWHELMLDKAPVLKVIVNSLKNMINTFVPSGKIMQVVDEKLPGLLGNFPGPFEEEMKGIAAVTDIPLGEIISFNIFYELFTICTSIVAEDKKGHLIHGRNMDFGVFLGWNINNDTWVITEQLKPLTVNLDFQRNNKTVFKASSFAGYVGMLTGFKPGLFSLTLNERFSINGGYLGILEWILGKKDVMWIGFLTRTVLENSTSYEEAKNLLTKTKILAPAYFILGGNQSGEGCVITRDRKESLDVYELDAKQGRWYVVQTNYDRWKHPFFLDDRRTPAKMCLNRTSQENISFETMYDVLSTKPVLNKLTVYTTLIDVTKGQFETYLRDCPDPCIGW
Description: The ability of exemplary compounds to inhibit acid ceramidase was measured.
Cell lysates overexpressing acid ceramidase were used as the enzyme source for compound potency determination in a biochemical fluorescent assay. Briefly, compounds were preincubated with 10 μg protein of cell lysates in a dose-response manner for 1 hr at RT in the assay buffer containing 25 mM NaAC and 100 mM NaCl, pH 4.5. The reaction was initiated by the addition of substrate Rbm14-12 at a final concentration of 6.3 μM. The reaction was run at RT for 1 hr before it was stopped by the addition of the stopping buffer containing 20% methanol (v/v), 1 mg/ml NaIO4, 0.1 M glycine, pH 10.6. The samples were incubated with the stopping buffer at RT for 1 hr to allow the fluorescent product to be formed. Finally, the plate was read with SpectraMax i3 plate reader (Molecular Devices) at ex360 nm and em446 nm. Data were collected and used to determine the IC50 values of compounds by curve fitting to the four-parameter inhibition equation.

[1] = Compound solubility in water
[2] = pH 4.5, 1 hr preincubation at RT

SMILES | IC50 (acid ceramidase; [2]) [nM] | solubility [1] [µg/mL] | IC50 (acid ceramidase; pH 4.5) [nM]
O=C(NCc1ccccc1)n1cnc2ccccc21 [Example 17, N-Benzyl-1H-benzo[d]imidazole-1-carboxamide] | < 200 | 1.9 (≈ 7.56 µM) | 
CCCCNC(=O)n1cnc2ccc(OC)cc21 [Example 51b, N-butyl-6-methoxy-1H-benzo[d]imidazole-1-carboxamide] | < 200 | 8.5 (≈ 34.4 µM) | 
COc1nc2ncccc2n1C(=O)NCCCOc1ccccc1 [Example 129, 2-Methoxy-N-(3-phenoxypropyl)-1H-imidazo[4,5-h]pyridine-1-carboxamide] | < 200 |  | 
COc1nc2c(C#N)cccc2n1C(=O)NCCCCc1ccccc1 [Example 138, 4-Cyano-2-methoxy-N-(4-phenylbutyl)-1H-benzo[d]imidazole-1-carboxamide] | < 200 | 0.3 (≈ 0.861 µM) | 
O=C(NCCN1CCOCC1)n1cnc2ccccc21 [Example 41, N-(2-Morpholinoethyl)-1H-benzo[d]imidazole-1-carboxamide] | > 1000 | 32 (≈ 117 µM) | 
COc1cc(C2CCN(C)CC2)c2ncn(C(=O)NCCCCc3ccccc3)c2c1 [Example 136, 6-Methoxy-4-(1-methylpiperidin-4-yl)-N-(4-phenylbutyl)-1H-benzo[d]imidazole-1-carboxamide] | < 200 | 21 (≈ 49.9 µM) | 
COc1nc2ccc(N3CCC4(CC3)COC4)cc2n1C(=O)NCCCc1ccccc1 [Example 238a, 2-Methoxy-N-(3-phenylpropyl)-6-(2-oxa-7-azaspiro[3,5]nonan-7-yl)-1H-benzo[d]imidazole-1-carboxamide] |  | 11 (≈ 25.3 µM) | < 200
CCCCNC(=O)n1c(OC(C)C)nc2ccccc21 [Example 96, N-Butyl-2-isopropoxy-1H-benzo[d]imidazole-1-carboxamide] | > 1000 | 10.3 (≈ 37.4 µM) | 
COc1nc2cc(-c3cncnc3)ccc2n1C(=O)NC1CCCCC1 [Example 111b, N-cyclohexyl-2-methoxy-5-(pyrimidin-5-yl)-1H-benzo[d]imidazole-1-carboxamide] | < 200 | 22 (≈ 62.6 µM) | 
O=C(NCCc1ccccc1)n1cnc2cc(Cl)c(-c3ccccn3)cc21 [Example 7b, 5-chloro-N-phenethyl-6-(pyridin-2-yl)-1H-benzo[d]imidazole-1-carboxamide] | < 200 | 0.1 (≈ 0.265 µM) | 
COc1cccc2c1ncn2C(=O)NCCC(C)C [Example 98, N-iso-Pentyl-4-methoxy-1H-benzo[d]imidazole-1-carboxamide] | < 200 | 16 (≈ 61.2 µM) | 
CCCCNC(=O)n1cnc2ccc(N3CCC(N4CCOCC4)CC3)cc21 [Example 101a, N-Butyl-6-(4-morpholinopiperidin-1-yl)-1H-benzo[d]imidazole-1-carboxamide] | < 200 | 26.7 (≈ 69.3 µM) | 
CCOc1nc2cccnc2n1C(=O)NCCC(C)C [Example 113, 2-Ethoxy-N-iso-pentyl-3H-imidazo[4,5-b]pyridine-3-carboxamide] | < 200 |  | 
CC(C)CCNC(=O)n1cnc2c(N3CCN(C)CC3)cc(Cl)cc21 [Example 112, 6-Chloro-N-iso-pentyl-4-(4-methylpiperazin-1-yl)-1H-benzo[d]imidazole-1-carboxamide] |  | 27.5 (≈ 75.6 µM) | 
Cc1nc2ccccc2n1C(=O)NCCc1ccccc1 [Example 2, 2-Methyl-N-phenethyl-1H-benzo[d]imidazole-1-carboxamide] | < 200 |  | 
Cn1c(=O)n(C(=O)NCCCCn2ccc(C(C)(C)C)n2)c2ncccc21 [Example 135b, N-(4-(3-(tert-butyl)-1H-pyrazol-1-yl)butyl)-1-methyl-2-oxo-1,2-dihydro-3H-imidazo[4,5-b]pyridine-3-carboxamide] |  | 23 (≈ 62.1 µM) | 
COCCNC(=O)n1c(OC)nc2ncccc21 [Example 95, 2-Methoxy-N-(2-methoxyethyl)-1H-imidazo[4,5-b]pyridine-1-carboxamide] | 200 to 1000 |  | 

Now from value to compound:

IC50 (acid ceramidase; [2]) [nM] | solubility [1] [µg/mL] | IC50 (acid ceramidase; pH 4.5) [nM] | SMILES
 | 5 (≈ 12.5 µM) | < 200 | COc1nc2cc(N3CCOCC3)c(F)cc2n1C(=O)NCCc1ccccc1 [Example 334b, 6-fluoro-2-methoxy-5-morpholino-N-(2-phenethyl)-1H-benzo[d]imidazole-1-carboxamide]
 | 24 (≈ 65 µM) | 200 to 1000 | CC(C)CCNC(=O)n1cnc2c(N3CCN4C(=O)CCC4C3)cccc21 (stereo not shown) [Example 209, N-iso-Pentyl-4-(6-oxohexahydropyrrolo[1,2-a]pyrazin-2(1H)-yl)-1H-benzo[d]imidazole-1-carboxamide]
 | 27 (≈ 59.4 µM) | 200 to 1000 | COc1nc2cc(N3CCOCC3)ccc2n1C(=O)NCCCCn1ccc(C(C)(C)C)n1 [Example 188a, N-(4-(3-(tert-Butyl)-1H-pyrazol-1-yl)butyl)-2-methoxy-5-morpholino-1H-benzo[d]imidazole-1-carboxamide]
 | 35 (≈ 80.9 µM) | < 200 | CN1CC(N2CCN(c3cccc4c3ncn4C(=O)NCCCc3ccccc3)CC2)C1 [Example 251, 4-(4-(1-Methylazetidin-3-yl)piperazin-1-yl)-N-(3-phenylpropyl)-1H-benzo[d]imidazole-1-carboxamide]
< 200 | 29 (≈ 62.7 µM) |  | CN1CCN(C2CN(c3cccc4c3ncn4C(=O)NCC(C)(C)Oc3ccccc3)C2)CC1 [Example 344, N-(2-Methyl-2-phenoxypropyl)-4-(3-(4-methylpiperazin-1-yl)azetidin-1-yl)-1H-benzo[d]imidazole-1-carboxamide]
 | 36 (≈ 80.6 µM) | 200 to 1000 | CN1CC(N2CCN(c3cccc4c3ncn4C(=O)NCCC3CCC(F)(F)C3)CC2)C1 (stereo not shown) [Example 287, N-(2-(3,3-Difluorocyclopentyl)ethyl)-4-(4-(1-methylazetidin-3-yl)piperazin-1-yl)-1H-benzo[d]imidazole-1-carboxamide]
 | 18 (≈ 52.4 µM) | > 1000 | CC(C)CCNC(=O)n1cnc2c(N3CCN(C)CC3=O)cccc21 [Example 162, N-iso-Pentyl-4-(4-methyl-2-oxopiperazin-1-yl)-1H-benzo[d]imidazole-1-carboxamide]
 | 31 (≈ 90.3 µM) | 200 to 1000 | CCN1CCN(c2cccc3c2ncn3C(=O)NCCC(C)C)CC1 [Example 208]
 | 20 (≈ 48.8 µM) | < 200 | CN1CCN(c2cccc3c2ncn3C(=O)NCCCC2(C(F)(F)F)CC2)CC1 [Example 254, 4-(4-Methylpiperazin-1-yl)-N-(3-(1-(trifluoromethyl)cyclopropyl)propyl)-1H-benzo[d]imidazole-1-carboxamide]
 | 29 (≈ 74.5 µM) | < 200 | CN1C[C@H]2C[C@@H]1CN2c1cccc2c1ncn2C(=O)NCCCc1ccccc1 [Example 246, 4-((1R,4R)-5-Methyl-2,5-diazabicyclo[2.2.1]heptan-2-yl)-N-(3-phenylpropyl)-1H-benzo[d]imidazole-1-carboxamide]
 | 29 (≈ 85.4 µM) | < 200 | CNC1CCN(c2cccc3c2ncn3C(=O)NCC#CC(C)C)C1 (stereo not shown) [Example 300, 4-(3-(Methylamino)pyrrolidin-1-yl)-N-(4-methylpent-2-ynyl)-1H-benzo[d]imidazole-1-carboxamide]
 | 28 (≈ 77.5 µM) | 200 to 1000 | CC(C)CCNC(=O)n1cnc2c(N3CCN(C)C(CF)C3)cccc21 (stereo not shown) [Example 201, 4-(3-(Fluoromethyl)-4-methylpiperazin-1-yl)-N-isopentyl-1H-benzo[d]imidazole-1-carboxamide]
 | 3 (≈ 7.53 µM) | < 200 | COc1nc2cc(F)c(N3CCOCC3)cc2n1C(=O)NCCc1ccccc1 [Example 334a, 5-Fluoro-2-methoxy-6-morpholino-N-(2-phenethyl)-1H-benzo[d]imidazole-1-carboxamide]
 | 24 (≈ 61.3 µM) | 200 to 1000 | CN1CCN(c2cccc3c2ncn3C(=O)NCC2CCC(F)(F)CC2)CC1 [Example 256, N-((4,4-Difluorocyclohexyl)methyl)-4-(4-methylpiperazin-1-yl)-1H-benzo[d]imidazole-1-carboxamide]
 | 19 (≈ 50.1 µM) | < 200 | CN1CCN(c2cccc3c2ncn3C(=O)NCCOc2ccccc2)CC1 [Example 257, 4-(4-Methylpiperazin-1-yl)-N-(2-phenoxyethyl)-1H-benzo[d]imidazole-1-carboxamide]
200 to 1000 | 22 (≈ 64.8 µM) |  | CC(C)C#CCNC(=O)n1cnc2c(N3CC(N(C)C)C3)cccc21 [Example 355, 4-(3-(Dimethylamino)azetidin-1-yl)-N-(4-methylpent-2-yn-1-yl)-1H-benzo[d]imidazole-1-carboxamide]
< 200 | 1.5 (≈ 3.72 µM) |  | O=C(NCCCc1ccccc1)n1cnc2c(N3CCN(C4CC4)CC3)cccc21 [Example 150, 4-(4-Cyclopropylpiperazin-1-yl)-N-(3-phenylpropyl)-1H-benzo[d]imidazole-1-carboxamide]
 | 12 (≈ 36.5 µM) | 200 to 1000 | CC(C)CCNC(=O)n1cnc2c(N3C[C@H]4C[C@@H]3CO4)cccc21 [Example 166, 4-((1R,4R)-2-Oxa-5-azabicyclo[2.2.1]heptan-5-yl)-N-iso-pentyl-1H-benzo[d]imidazole-1-carboxamide]
